pIC50: −log10 of the molar value. Read-outs that look alike come from different tables or passages of the source.
Tests used:
[1] = target: Beta Secretase enzyme (BACE) (Homo sapiens, UniProt P56817); assay: In vitro enzymatic BACE FRET (fluorescence resonance energy transfer) assay; format: biochemical; settings: average IC50, enzyme assay; read-out: BACE 1 FRET assay
In short: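 Run in 0.05 M acetate pH 4.2 with 10% DMSO final and 100 uM genapol; started by adding 50 nM FRET peptide substrate (fluorophore and quencher flanking the cleavage site), incubated one hour, then stopped with Tris to neutral pH before reading fluorescence.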

[2] = test system: Aβ40 in conditioned medium of cells stably expressing Amyloid Precursor Protein (APP); assay: In vitro BACE cell-based assay (Aβ40 in conditioned medium, sandwich ELISA); settings: Homo sapiens, read-out: HEK cell assay
In short: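 Conditioned medium from stably APP-expressing cells treated with compound dose series is assayed for Aβ40 by sandwich ELISA with time-resolved fluorescence detection. IC50 is calculated from percent inhibition of Aβ40 against compound concentration.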

[3] = test system: Abeta 40 in cerebrospinal fluid (CSF) and brain; assay: In vivo inhibition of beta-secretase (Abeta 40 reduction in CSF and brain); settings: rat, after 4 hrs; for inhibition in vivo at 10 mg/kg: Abeta 40, 10 mg/kg (10 mpk); for inhibition in vivo at 3 mg/kg: Abeta 40, 3 mpk
Excerpt: In Vivo Inhibition of Beta-Secretase
Several animal models, including mouse, rat, dog, and monkey, may be used to screen for inhibition of beta-secretase activity in vivo following administration of a test compound sample. Animals used in this invention can be wild type, transgenic, or gene knockout animals. […] A separate group of animals receive 2% hydroxypropyl methylcellulose, 1% Tween80 alone, containing no test compound, and serve as a vehicle-control group. At the end of the test period, animals are sacrificed and brain tissues, plasma or cerebrospinal fluid are collected. […] Homogenates are centrifuged at 355,000 g, 4° C. for 30 minutes. CSF or brain supernatants are then analyzed for the presence of A-beta peptide by specific sandwich ELISA assays based on ECL (Electrochemiluminescence) technology. For example, rat Abeta40 is measured using biotinylated-4G8 (Signet) as a capture antibody and Fab40 (an in-house antibody specific to the C-terminal of Abeta40) as a detection antibody.
Actual vehicles used: Oral: 2% HPMC, 1% Tween80, pH 2.2

[4] = HEK293, average IC50, HEK cells
[5] = CSF, read-out: CSF A-beta reduction % at 10 mg/kg
[6] = brain, read-out: Brain A-beta reduction % at 10 mg/kg
[7] = CSF, read-out: CSF A-beta reduction % at 3 mpk
[8] = brain, read-out: Brain A-beta reduction % at 3 mpk

Beta Secretase enzyme (BACE), sequence (P56817 46-501, species assumed): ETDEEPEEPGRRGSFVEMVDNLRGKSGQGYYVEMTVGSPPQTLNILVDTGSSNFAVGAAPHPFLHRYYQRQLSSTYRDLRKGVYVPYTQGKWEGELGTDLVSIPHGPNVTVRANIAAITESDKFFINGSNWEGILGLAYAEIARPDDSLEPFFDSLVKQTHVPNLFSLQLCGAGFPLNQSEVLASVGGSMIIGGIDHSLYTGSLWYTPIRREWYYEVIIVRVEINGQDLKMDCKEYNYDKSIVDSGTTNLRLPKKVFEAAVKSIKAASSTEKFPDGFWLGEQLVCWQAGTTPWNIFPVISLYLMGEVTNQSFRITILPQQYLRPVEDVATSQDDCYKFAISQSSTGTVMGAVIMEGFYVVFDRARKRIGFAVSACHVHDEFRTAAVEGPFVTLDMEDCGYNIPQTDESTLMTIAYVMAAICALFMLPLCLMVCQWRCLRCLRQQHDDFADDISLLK

| pIC50 [1] | pIC50 [2, 4] | pIC50 ([2]; HEK293, average IC50) | SMILES | inhibition in vivo at 10 mg/kg [3, 5] [%] | inhibition in vivo at 10 mg/kg [3, 6] [%] | inhibition in vivo at 3 mg/kg [3, 7] [%] | inhibition in vivo at 3 mg/kg [3, 8] [%] | CSF A-beta reduction % at 5 mpk ([3]; CSF, Abeta 40, 5 mpk) [% at 5 mpk] | Brain A-beta reduction % at 5 mpk ([3]; brain, Abeta 40, 5 mpk) [% at 5 mpk] |
| --- | --- | --- | --- | --- | --- | --- | --- | --- | --- |
| 9.40 | 8.30 | – | NC1=N[C@@]2(CO1)c1cc(-c3cccnc3)ccc1Oc1c2cc(N2CCC(F)(F)C2)nc1F [Example 916, (S)-3-(3,3-difluoropyrrolidin-1-yl)-1-fluoro-7-(pyridin-3-yl)-5′-H-spiro[chromeno[2,3-c]pyridine-5,4′-oxazol]-2′-amine] | 61 | 44 | – | – | – | – |
| 9.40 | 8.05 | – | NC1=N[C@@]2(CO1)c1cc(-c3cncc(F)c3)ccc1Oc1c2cc(N2CCC(F)(F)C2)nc1F [Example 922, (S)-3-(3,3-difluoropyrrolidin-1-yl)-1-fluoro-7-(5-fluoropyridin-3-yl)-5′-H-spiro[chromeno[2,3-c]pyridine-5,4′-oxazol]-2′-amine] | – | – | 69 | 57 | – | – |
| 9.52 | 8.00 | – | NC1=N[C@@]2(CO1)c1cc(-c3cncc(F)c3)ccc1Oc1c2cc(N2CCC(F)(F)CC2)nc1F [Example 927, (S)-3-(4,4-difluoropiperidin-1-yl)-1-fluoro-7-(5-fluoropyridin-3-yl)-5′-H-spiro[chromeno[2,3-c]pyridine-5,4′-oxazol]-2′-amine] | 70 | 65 | – | – | – | – |
| 9.40 | 8.10 | – | NC1=N[C@@]2(CS1)c1cc(-c3cccnc3F)ccc1Oc1cnc(C3=CCCOC3)cc12 [Example 928, (S)-3-(5,6-dihydro-2H-pyran-3-yl)-7-(2-fluoropyridin-3-yl)-5′H-spiro[chromeno[2,3-c]pyridine-5,4′-thiazol]-2′-amine] | 82 | 71 | – | – | – | – |
| 9.40 | 9.00 | – | CC#Cc1cncc(-c2ccc3c(c2)[C@@]2(COC(N)=N2)c2cc(C4=CCOCC4)cnc2O3)c1 [Example 942, (S)-3-(3,6-dihydro-2H-pyran-4-yl)-7-(5-(prop-1-ynyl)pyridin-3-yl)-5′H-spiro[chromeno[2,3-b]pyridine-5,4′-oxazol]-2′-amine] | – | – | 57 | 42 | – | – |
| 9.40 | 8.40 | – | CC#Cc1cncc(-c2ccc3c(c2)[C@@]2(COC(N)=N2)c2cc(-c4cnn(C)c4)cc(F)c2O3)c1 [Example 947, (S)-4′-fluoro-2′-(1-methyl-1H-pyrazol-4-yl)-7′-(5-(prop-1-ynyl)pyridin-3-yl)-5H-spiro[oxazole-4,9′-xanthen]-2-amine] | – | – | 22 | 25 | – | – |
| 9.22 | 8.40 | – | CC#Cc1cncc(-c2ccc3c(c2)[C@@]2(COC(N)=N2)c2cc(C#CC(C)(C)O)cc(F)c2O3)c1 [Example 951, (S)-4-(2-amino-5′-fluoro-2′-(5-(prop-1-ynyl)pyridin-3-yl)-5H-spiro[oxazole-4,9′-xanthene]-7′-yl)-2-methylbut-3-yn-2-ol] | – | – | 17 | 13 | – | – |
| 9.30 | – | 7.85 | NC1=N[C@@]2(CS1)c1cc(-c3cccnc3F)ccc1Oc1cnc(N3CCOCC3)cc12 [Example 999, (S)-7-(2-fluoropyridin-3-yl)-3-morpholino-5′H-spiro[chromeno[2,3-c]pyridine-5,4′-thiazol]-2′-amine] | – | – | – | – | 58 | 40 |
| 9.52 | – | 8.40 | NC1=N[C@@]2(CS1)c1cc(-c3cccnc3F)ccc1Oc1c2cc(C2=CCOCC2)nc1F [Example 1001, (S)-3-(3,6-dihydro-2H-pyran-4-yl)-1-fluoro-7-(2-fluoropyridin-3-yl)-5′H-spiro[chromeno[2,3-c]pyridine-5,4′-thiazol]-2′-amine] | – | – | 73 | 62 | – | – |
| 9.40 | – | 8.15 | NC1=N[C@@]2(CS1)c1cc(-c3cccnc3F)ccc1Oc1c2cc(C2CCOCC2)nc1F [Example 1029, (S)-1-fluoro-7-(2-fluoropyridin-3-yl)-3-(tetrahydro-2H-pyran-4-yl)-5′H-spiro[chromeno[2,3-c]pyridine-5,4′-thiazol]-2′-amine] | 83 | 73 | – | – | – | – |
| 6.97 | – | 6.25 | CC1(C)C=C(c2cc3c(c(F)n2)Oc2ccc(-c4cccnc4F)cc2[C@@]32CSC(N)=N2)CCO1 [Example 1033, (S)-3-(6,6-dimethyl-3,6-dihydro-2H-pyran-4-yl)-1-fluoro-7-(2-fluoropyridin-3-yl)-5′H-spiro[chromeno[2,3-c]pyridine-5,4′-thiazol]-2′-amine] | – | – | 60 | 52 | – | – |
| 8.68 | – | 7.31 | Cc1cc(-c2cc3c(c(F)n2)Oc2ccc(-c4cccnc4F)cc2[C@@]32CSC(N)=N2)ccn1 [Example 1037, (S)-1-fluoro-7-(2-fluoropyridin-3-yl)-3-(2-methylpyridin-4-yl)-5′H-spiro[chromeno[2,3-c]pyridine-5,4′-thiazol]-2′-amine] | 67 | 58 | – | – | – | – |
| 9.52 | – | 7.82 | CC(C)(F)COc1cc(F)c2c(c1)[C@]1(CSC(N)=N1)c1cc(-c3cccnc3F)ccc1O2 [Example 1067, (S)-4′-fluoro-2′-(2-fluoro-2-methylpropoxy)-7′-(2-fluoropyridin-3-yl)-5H-spiro[thiazole-4,9′-xanthen]-2-amine] | 69 | 55 | – | – | – | – |
| 9.40 | – | 7.85 | NC1=N[C@@]2(CS1)c1cc(-c3cccnc3F)ccc1Oc1c(F)cc(N3CCC(F)(F)CC3)cc12 [Example 1076, (S)-2′-(4,4-difluoropiperidin-1-yl)-4′-fluoro-7′-(2-fluoropyridin-3-yl)-5H-spiro[thiazole-4,9′-xanthen]-2-amine] | 63 | 33 | – | – | – | – |
| 9.52 | – | 8.05 | NC1=N[C@@]2(CS1)c1cc(-c3cccnc3F)ccc1Oc1c(F)cc(N3CCC(F)(F)C3)cc12 [Example 1077, (S)-2′-(3,3-difluoropyrrolidin-1-yl)-4′-fluoro-7′-(2-fluoropyridin-3-yl)-5H-spiro[thiazole-4,9′-xanthen]-2-amine] | 69 | 53 | – | – | – | – |
| 9.40 | – | 7.92 | NC1=N[C@@]2(CS1)c1cc(-c3cccnc3F)ccc1Oc1c(F)cc(-c3ncccn3)cc12 [Example 1079, (S)-4′-fluoro-7′-(2-fluoropyridin-3-yl)-2′-(pyrimidin-2-yl)-5H-spiro[thiazole-4,9′-xanthen]-2-amine] | 67 | 54 | – | – | – | – |
| 8.92 | – | 7.74 | NC1=N[C@@]2(CS1)c1cc(-c3cccnc3F)ccc1Oc1c(F)cc(-c3cccnc3)cc12 [Example 1083, (S)-4′-fluoro-7′-(2-fluoropyridin-3-yl)-2′-(pyridin-3-yl)-5H-spiro[thiazole-4,9′-xanthen]-2-amine] | 66 | 53 | – | – | – | – |
| 8.12 | – | 6.99 | NC1=N[C@@]2(CS1)c1cc(-c3cccnc3F)ccc1Oc1c(F)cc(N3C[C@@H]4C[C@H]3CO4)cc12 [Example 1084, (S)-2′-((1S,4S)-2-oxa-5-azabicyclo[2.2.1]heptan-5-yl)-4′-fluoro-7′-(2-fluoropyridin-3-yl)-5H-spiro[thiazole-4,9′-xanthen]-2-amine] | 67 | 50 | – | – | – | – |
